Here are results for 11 compounds from patent publication US20240209019A1, “COMPOUNDS AND METHODS FOR TREATING HYPERKALEMIA” (ARDELYX, INC., priority 2019, published 2024).

The target in the assay is HSD2 (Homo sapiens (Human), UniProt P80365). As to the kind of experiment: HSD2 activity: cortisol conversion in human descending colon organoid monolayer cultures (Example 112). As to conditions: human descending colon epithelial cultures on transwells; 30 minute pre-incubation, then 40 nM cortisol for four hours; cortisol HTRF assay.
Sequence of HSD2 (P80365 whole entry): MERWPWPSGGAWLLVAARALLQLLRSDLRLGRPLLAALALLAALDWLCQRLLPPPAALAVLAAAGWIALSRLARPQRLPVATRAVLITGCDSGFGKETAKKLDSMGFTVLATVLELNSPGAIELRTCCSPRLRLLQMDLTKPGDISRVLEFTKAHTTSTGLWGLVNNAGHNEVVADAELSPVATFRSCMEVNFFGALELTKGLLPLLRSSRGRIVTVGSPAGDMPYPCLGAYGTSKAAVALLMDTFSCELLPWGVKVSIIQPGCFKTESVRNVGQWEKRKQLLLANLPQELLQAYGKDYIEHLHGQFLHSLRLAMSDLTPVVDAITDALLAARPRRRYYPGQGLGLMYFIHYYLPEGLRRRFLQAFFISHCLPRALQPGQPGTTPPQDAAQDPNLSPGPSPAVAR

Protocol: Human descending colon epithelial stem cells were cultured as 3D organoids in accordance with Sato et al. Gastroenterology. […] Cultures were differentiated using SBM containing ENRA and 30 nM aldosterone on day 3, and cultures were used for assay on day 6 or 7. Compounds were diluted in DMSO and serial dilutions prepared by titrating in DMSO. Compounds were then diluted into DMEM/F12. Transwell plates containing descending colon cultures were washed twice with DMEM/F12 and compound was added to the apical compartment. Cells were incubated with test compound for 30 minutes at 37° C., 5% CO2 to equilibrate across the cell membrane. A second compound plate was prepared in which the serially diluted compounds in DMSO were diluted into DMEM/F12 containing 40 nM cortisol. Following the 30 minute pre-incubation step, the apical media was aspirated and compounds diluted in DMEM/F12 with 40 nM cortisol were added to the apical side of the transwell. The plate was then incubated for four hours at 37° C., 5% CO2. Cortisol levels were measured using a cortisol HTRF assay kit as described by the manufacturer (Cisbio). Concentration-response curves were then plotted and IC50 (and pIC50) values were determined using least squares non-linear regression.
Inhibition of HSD2 activity as measured by the inhibition of the conversion of cortisone to cortisol.

As for `CCc1oc(=O)oc1COC(=O)[C@@]1(C)[C@@H]2CC[C@]3(C)[C@H](C(=O)C=C4[C@@H]5C[C@@](C)(C(=O)O)CC[C@]5(C)CC[C@]43C)[C@@]2(C)CC[C@@]1(C)OC(C)=O` [Compound 703-1, (2S,4aS,6aS,6bR,8aR,9S,10R,12aS,12bR,14bR)-10-(acetyloxy)-9-{[(5-ethyl-2-oxo-2H-1,3-dioxol-4-yl)methoxy]carbonyl}-2,4a,6a,6b,9,10,12a-heptamethyl-13-oxo-1,2,3,4,4a,5,6,6a,6b,7,8,8a,9,10,11,12,12a,12b,13,14b-icosahydropicene-2-carboxylic acid], the pIC50 is recorded as 6.1. `CC(=O)O[C@]1(C)CC[C@@]2(C)[C@@H](CC[C@]3(C)[C@@H]2C(=O)C=C2[C@@H]4C[C@@](C)(C(=O)O)CC[C@]4(C)CC[C@]23C)[C@]1(C)C(=O)OCc1oc(=O)oc1C` [Compound 704-1, (2S,4aS,6aS,6bR,8aR,9S,10R,12aS,12bR,14bR)-10-(acetyloxy)-2,4a,6a,6b,9,10,12a-heptamethyl-9-{[(5-methyl-2-oxo-2H-1,3-dioxol-4-yl)methoxy]carbonyl}-13-oxo-1,2,3,4,4a,5,6,6a,6b,7,8,8a,9,10,11,12,12a,12b,13,14b-icosahydropicene-2-carboxylic acid] yielded a pIC50 of 6.3. Compound `CC(=O)O[C@H]1CC[C@@]2(C)[C@@H](CC[C@]3(C)[C@@H]2C(=O)C=C2[C@@H]4C[C@@](C)(C(=O)O)CC[C@]4(C)CC[C@]23C)[C@]1(C)C(=O)OCc1oc(=O)oc1C(C)(C)C` [Compound 705-1, (2S,4aS,6aS,6bR,8aR,9S,10S,12aS,12bR,14bR)-10-(acetyloxy)-9-{[(5-tert-butyl-2-oxo-2H-1,3-dioxol-4-yl)methoxy]carbonyl}-2,4a,6a,6b,9,12a-hexamethyl-13-oxo-1,2,3,4,4a,5,6,6a,6b,7,8,8a,9,10,11,12,12a,12b,13,14b-icosahydropicene-2-carboxylic acid] gave a pIC50 of 6.6.

For the compound `CCCc1oc(=O)oc1COC(=O)[C@]1(C)[C@@H](OC(C)=O)CC[C@@]2(C)[C@H]1CC[C@]1(C)[C@@H]2C(=O)C=C2[C@@H]3C[C@@](C)(C(=O)O)CC[C@]3(C)CC[C@]21C` [Compound 706-1, (2S,4aS,6aS,6bR,8aR,9S,10S,12aS,12bR,14bR)-10-(acetyloxy)-2,4a,6a,6b,9,12a-hexamethyl-13-oxo-9-{[(2-oxo-5-propyl-2H-1,3-dioxol-4-yl)methoxy]carbonyl}-1,2,3,4,4a,5,6,6a,6b,7,8,8a,9,10,11,12,12a,12b,13,14b-icosahydropicene-2-carboxylic acid], the pIC50 was 6.7. As for `CC(=O)O[C@H]1CC[C@@]2(C)[C@@H](CC[C@]3(C)[C@@H]2C(=O)C=C2[C@@H]4C[C@@](C)(C(=O)O)CC[C@]4(C)CC[C@]23C)[C@]1(C)C(=O)OCc1oc(=O)oc1-c1ccccc1` [Compound 707-1, (2S,4aS,6aS,6bR,8aR,9S,10S,12aS,12bR,14bR)-10-(acetyloxy)-2,4a,6a,6b,9,12a-hexamethyl-13-oxo-9-{[(2-oxo-5-phenyl-2H-1,3-dioxol-4-yl)methoxy]carbonyl}-1,2,3,4,4a,5,6,6a,6b,7,8,8a,9,10,11,12,12a,12b,13,14b-icosahydropicene-2-carboxylic acid], the figure is 7.1; as for `COCC(=O)O[C@H]1CC[C@@]2(C)[C@@H](CC[C@]3(C)[C@@H]2C(=O)C=C2[C@@H]4C[C@@](C)(C(=O)O)CC[C@]4(C)CC[C@]23C)[C@]1(C)C(=O)OCc1oc(=O)oc1C(C)C` [Compound 708-1, (2S,4aS,6aS,6bR,8aR,9S,10S,12aS,12bR,14bR)-10-[(2-methoxyacetyl)oxy]-2,4a,6a,6b,9,12a-hexamethyl-13-oxo-9-({[2-oxo-5-(propan-2-yl)-2H-1,3-dioxol-4-yl]methoxy}carbonyl)-1,2,3,4,4a,5,6,6a,6b,7,8,8a,9,10,11,12,12a,12b,13,14b-icosahydropicene-2-carboxylic acid], 6.3; as for `COCC(=O)O[C@H]1CC[C@@]2(C)[C@@H](CC[C@]3(C)[C@@H]2C(=O)C=C2[C@@H]4C[C@@](C)(C(=O)O)CC[C@]4(C)CC[C@]23C)[C@]1(C)C(=O)OCc1oc(=O)oc1C` [Compound 709-1, (2S,4aS,6aS,6bR,8aR,9S,10S,12aS,12bR,14bR)-10-[(2-methoxyacetyl)oxy]-2,4a,6a,6b,9,12a-hexamethyl-9-{[(5-methyl-2-oxo-2H-1,3-dioxol-4-yl)methoxy]carbonyl}-13-oxo-1,2,3,4,4a,5,6,6a,6b,7,8,8a,9,10,11,12,12a,12b,13,14b-icosahydropicene-2-carboxylic acid], 7.2.

Consider `COCCOCCOCCSCc1oc(=O)oc1COC(=O)CO[C@H]1CC[C@]2(C)[C@H]3C(=O)C=C4[C@@H]5C[C@@](C)(C(=O)O)CC[C@]5(C)CC[C@@]4(C)[C@]3(C)CC[C@H]2C1(C)C` [Compound 710-1, (2S,4aS,6aS,6bR,8aR,10S,12aS,12bR,14bR)-2,4a,6a,6b,9,9,12a-heptamethyl-13-oxo-10-(2-oxo-2-{[2-oxo-5-(2,5,8-trioxa-11-thiadodecan-12-yl)-2H-1,3-dioxol-4-yl]methoxy}ethoxy)-1,2,3,4,4a,5,6,6a,6b,7,8,8a,9,10,11,12,12a,12b,13,14b-icosahydropicene-2-carboxylic acid], for which the pIC50 was 6.

The compound `CC1(C)[C@@H](OCC(=O)OCc2oc(=O)oc2CO)CC[C@]2(C)[C@H]3C(=O)C=C4[C@@H]5C[C@@](C)(C(=O)O)CC[C@]5(C)CC[C@@]4(C)[C@]3(C)CC[C@@H]12` [Compound 711-1, (2S,4aS,6aS,6bR,8aR,10S,12aS,12bR,14bR)-10-(2-{[5-(hydroxymethyl)-2-oxo-2H-1,3-dioxol-4-yl]methoxy}-2-oxoethoxy)-2,4a,6a,6b,9,9,12a-heptamethyl-13-oxo-1,2,3,4,4a,5,6,6a,6b,7,8,8a,9,10,11,12,12a,12b,13,14b-icosahydropicene-2-carboxylic acid] displayed a pIC50 of 5.8.

As to `Cc1oc(=O)oc1COC(=O)CO[C@H]1CC[C@]2(C)[C@H]3C(=O)C=C4[C@@H]5C[C@@](C)(C(=O)O)CC[C@]5(C)CC[C@@]4(C)[C@]3(C)CC[C@H]2C1(C)C` [Compound 712-1, (2S,4aS,6aS,6bR,8aR,10S,12aS,12bR,14bR)-2,4a,6a,6b,9,9,12a-heptamethyl-10-{2-[(5-methyl-2-oxo-2H-1,3-dioxol-4-yl)methoxy]-2-oxoethoxy}-13-oxo-1,2,3,4,4a,5,6,6a,6b,7,8,8a,9,10,11,12,12a,12b,13,14b-icosahydropicene-2-carboxylic acid], the pIC50 turned out to be 5. For the compound `CCOC(=O)c1cnn([C@H]2CC[C@@]3(C)[C@@H](CC[C@]4(C)[C@@H]3C(=O)C=C3[C@@H]5C[C@@](C)(C(=O)O)CC[C@]5(C)CC[C@]34C)[C@]2(C)C(=O)OCc2oc(=O)oc2C)c1OC` [Compound 713-1, (2S,4aS,6aS,6bR,8aR,9S,10S,12aS,12bR,14bR)-10-[4-(ethoxycarbonyl)-5-methoxy-1H-pyrazol-1-yl]-2,4a,6a,6b,9,12a-hexamethyl-9-{[(5-methyl-2-oxo-2H-1,3-dioxol-4-yl)methoxy]carbonyl}-13-oxo-1,2,3,4,4a,5,6,6a,6b,7,8,8a,9,10,11,12,12a,12b,13,14b-icosahydropicene-2-carboxylic acid], the pIC50 is 6.9.
